Assay results as given in PubChem BioAssay AID493141 (Sanford-Burnham Center for Chemical Genomics, 2011).
“And” between values parts separate entries of the source, which are not always exact repeats. Equal entries are not always repeated. The source made the active and inactive calls. No rule for the calls is given here.

What follows are compounds tested against Alkaline phosphatase, tissue-nonspecific isozyme (Homo sapiens) (UniProt P05186) (assay: human TNAP enzyme inhibitors, SAR follow-up, selectivity assay for human IAP inhibitor project, biochemical (AID 493141)). Conditions: isolated enzyme, CDP-Star luminescence, 30 min.
Alkaline phosphatase, tissue-nonspecific isozyme (Homo sapiens), sequence (P05186 whole entry, looked up): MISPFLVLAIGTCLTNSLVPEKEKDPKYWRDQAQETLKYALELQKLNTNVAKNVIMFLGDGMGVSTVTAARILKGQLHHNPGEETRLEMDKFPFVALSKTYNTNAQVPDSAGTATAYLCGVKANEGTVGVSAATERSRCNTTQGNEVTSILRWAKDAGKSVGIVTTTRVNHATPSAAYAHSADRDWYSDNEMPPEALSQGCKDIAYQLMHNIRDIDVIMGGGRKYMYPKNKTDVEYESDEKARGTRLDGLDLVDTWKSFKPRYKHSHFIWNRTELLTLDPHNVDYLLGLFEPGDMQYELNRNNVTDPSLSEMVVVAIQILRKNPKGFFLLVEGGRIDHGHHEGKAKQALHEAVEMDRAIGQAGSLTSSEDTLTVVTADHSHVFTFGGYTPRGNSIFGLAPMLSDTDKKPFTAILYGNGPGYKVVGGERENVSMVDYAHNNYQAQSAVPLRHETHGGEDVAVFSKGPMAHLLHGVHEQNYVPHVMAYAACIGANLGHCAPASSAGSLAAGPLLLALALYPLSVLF

IC50	SMILES
> 100 µM (inactive)	COc1ccc(-c2csc(Nc3cccc4ccccc34)n2)cc1
> 100 µM (inactive)	Cc1cccc2sc(NNC(=O)c3ccc4c(c3)OCCO4)nc12
17.8 µM	Oc1ccc(Nc2nc(-c3ccc(O)c(O)c3)cs2)cc1
> 100 µM (inactive)	Cc1cccc(Nc2nc(-c3ccc(O)c(C(N)=O)c3)cs2)c1
> 100 µM (inactive)	Cc1cccc(NC(=S)NN=Cc2ccc3c(c2)OCO3)c1
> 100 µM (inactive)	COC(=O)/C=C1\S/C(=N/N=C/c2ccc(Cl)cc2)NC1=O
> 100 µM (inactive)	CN(C)S(=O)(=O)c1cccc(NC(=S)NN=Cc2ccc(O)c(O)c2O)c1
> 100 µM (inactive)	COc1cc(/C=N/N=C2\NC(=O)C(CC(=O)O)S2)cc(OC)c1OC (stereo not given)
> 100 µM (inactive)	Cc1ccc(Nc2nc(-c3ccc(O)c(O)c3)cs2)cc1
> 100 µM (inactive)	Cc1ccc(Nc2nc(-c3ccc(O)cc3O)cs2)cc1F
> 100 µM (inactive)	COc1cc(C(=O)NNC(=S)Nc2ccc(S(N)(=O)=O)cc2)cc(OC)c1OC
> 100 µM (inactive)	N#CCCn1cc(/C=N/N=C2/NC(=O)C(CC(=O)O)S2)c(-c2ccc(F)cc2)n1 (stereo not given)
> 100 µM (inactive)	COc1ccc(C=Nn2c(=S)n(C)c3ccccc32)cc1OC
> 100 µM (inactive)	COc1cccc(Nc2nc(-c3ccc(O)cc3)cs2)c1
> 100 µM (inactive)	COc1cc(C=NN=C2SC(CC(=O)O)C(=O)N2c2ccc(O)cc2)ccc1O (stereo not given)
> 100 µM (inactive)	Cc1cccc(C)c1NC(=S)N/N=C/c1ccc(O)c(O)c1O
> 100 µM (inactive)	FC(F)(F)c1cccc(NC(=S)NCCC(c2ccccc2)c2ccccc2)c1
> 100 µM (inactive)	CCN(CC)S(=O)(=O)c1ccc(-c2csc(=Nc3cccc4ccccc34)n2C)cc1
> 100 µM (inactive)	COC(=O)/C=C1/S/C(=N/NC(=O)c2ccc(OC)cc2)NC1=O
> 100 µM (inactive)	Cc1cc(C)cc(Nc2nc(-c3ccc(O)cc3O)cs2)c1
> 100 µM (inactive)	COc1ccc(/C=N/N=C2/NC(=O)C(CC(=O)O)S2)cc1OC (stereo not given)
41 µM and > 100 µM (inactive)	Cc1c(Cl)cccc1Nc1nc(-c2ccc(O)c(O)c2)cs1
> 100 µM (inactive)	CCOc1cc(/C=N/N=C2\NC(=O)C(CC(=O)O)S2)ccc1O (stereo not given)
> 100 µM (inactive)	CC(C)(C)c1ccc(/C=N/N=C2\NC(=O)C(CC(=O)O)S2)cc1 (stereo not given)
> 100 µM (inactive)	COc1cc(C=NNC(=S)Nc2cccc(S(=O)(=O)N(C)C)c2)ccc1O

IC50	SMILES
60.6 µM	Cc1cccc(Nc2nc(-c3ccc(O)c(O)c3)cs2)c1
86.1 µM	O=[N+]([O-])c1ccccc1NC(=S)N/N=C/c1ccc(O)c(O)c1O
> 100 µM (inactive)	Cc1ccc2sc(NNC(=O)c3ccc4c(c3)OCCO4)nc2c1C
> 100 µM (inactive)	COC(=O)/C=C1/S/C(=N/N=Cc2ccc(N(C)C)cc2)NC1=O
79.4 µM	Cc1ccc(Nc2nc(-c3ccc(O)c(O)c3)cs2)cc1F
> 100 µM (inactive)	COc1cc(C=NNC(=S)Nc2cccc(S(=O)(=O)N(C)C)c2)cc(OC)c1O
> 100 µM (inactive)	O=C(O)CC1S/C(=N/N=C/c2ccco2)NC1=O (stereo not given)
> 100 µM (inactive)	COC(=O)/C=C1\SC(N=Nc2c(O)[nH]c3ccccc23)=NC1=O
> 100 µM (inactive)	COC(=O)/C=C1/S/C(=N/NC(=O)c2ccc(Cl)cc2Cl)NC1=O
> 100 µM (inactive)	Cc1ccc(Nc2nc(-c3ccc(O)cc3O)cs2)cc1
> 100 µM (inactive)	CC(=NNC(=S)Nc1ccccc1)c1ccc2c(c1)OCO2
> 100 µM (inactive)	COc1ccc(/C=N/N=C2\NC(=O)C(CC(=O)O)S2)c(OC)c1 (stereo not given)
> 100 µM (inactive)	Cn1c(=S)n(N=Cc2ccc3c(c2)OCO3)c2ccccc21
> 100 µM (inactive)	COC(=O)/C=C1/S/C(=N/NC(=O)c2ccccc2OC)NC1=O
> 100 µM (inactive)	Cc1ccc(C)c(Nc2nc(-c3ccc(O)cc3O)cs2)c1
54.8 µM	Oc1ccc(-c2csc(Nc3ccc(F)cc3)n2)cc1O
14.1 µM	O=S(=O)(c1ccc(NC(=S)N/N=C/c2ccc(O)c(O)c2)cc1)N1CCOCC1
> 100 µM (inactive)	CCOc1ccc(Nc2nc(-c3ccc(O)c(O)c3)cs2)cc1
> 100 µM (inactive)	CCOc1cc(C=NNC(=S)NC2CCCCC2)ccc1O
> 100 µM (inactive)	COC(=O)/C=C1/S/C(=N/NC(=O)c2ccccc2)NC1=O
> 100 µM (inactive)	S=C(NCCC(c1ccccc1)c1ccccc1)Nc1ccc(Cl)cc1Cl
> 100 µM (inactive)	CCOc1cc(C=N/N=C2/NC(=O)C(CC(=O)O)S2)ccc1OCc1ccccc1Cl (stereo not given)
> 100 µM (inactive)	Cc1ccc(Nc2nc(-c3ccc(O)cc3O)cs2)cc1C
> 100 µM (inactive)	COc1cc([N+](=O)[O-])ccc1NC(=S)NNC(=O)c1ccc2c(c1)OCO2
> 100 µM (inactive)	COc1ccc(NC(=S)NCCC(c2ccccc2)c2ccccc2)cc1

IC50	SMILES
> 100 µM (inactive)	COc1cc([N+](=O)[O-])ccc1NC(=S)NCCC(c1ccccc1)c1ccccc1
> 100 µM (inactive)	O=S(=O)(Nc1ncccn1)c1ccc(NC(=S)NCCC(c2ccccc2)c2ccccc2)cc1
22.5 µM and 27.9 µM	Oc1ccc(-c2csc(Nc3cccc4ccccc34)n2)cc1O
> 100 µM (inactive) and 83.7 µM	COc1ccc(Cl)cc1Nc1nc(-c2ccc(O)c(O)c2)cs1
> 100 µM (inactive)	Cc1ccc(Nc2nc(-c3ccc(O)c(C(N)=O)c3)cs2)cc1
6.26 µM	NS(=O)(=O)c1ccc(Nc2nc(-c3ccc(O)c(O)c3)cs2)cc1
> 100 µM (inactive)	Cc1ccc2nc(NNC(=O)c3ccc4c(c3)OCCO4)sc2c1
> 100 µM (inactive)	COC(=O)C/C=N/N=C1\NC(=O)/C(=C/C(=O)O)S1
> 100 µM (inactive)	COc1ccc(-c2csc(Nc3cccc4ccccc34)n2)cc1F
> 100 µM (inactive)	Oc1ccc(-c2csc(Nc3ccccc3)n2)c(O)c1
51.4 µM	Cc1ccc(Cl)cc1Nc1nc(-c2ccc(O)c(O)c2)cs1
59.9 µM	NS(=O)(=O)c1ccc(Nc2nc(-c3ccc(O)cc3O)cs2)cc1
> 100 µM (inactive)	COc1ccc(C=NNC(=S)Nc2ccccc2[N+](=O)[O-])cc1O
> 100 µM (inactive)	Cc1cc(=O)oc2cc(NC(=S)NCCC(c3ccccc3)c3ccccc3)ccc12
30.5 µM and 21.4 µM	CCc1ccccc1Nc1nc(-c2ccc(O)c(O)c2)cs1
> 100 µM (inactive)	Cc1cccc(NC(=S)NNC(=O)c2ccc3c(c2)OCO3)c1
> 100 µM (inactive)	COC(=O)/C=C1/S/C(=N/NC(=O)c2ccccc2C)NC1=O
> 100 µM (inactive)	COc1cc(/C=N/N=C2/SCC(=O)N2c2ccc(O)cc2)ccc1O
> 100 µM (inactive)	COC(=O)/C=C1\S/C(=N/N=C/CC(=O)OC)NC1=O
> 100 µM (inactive)	Cc1ccc(-c2ccc(/C=N/N=C3\NC(=O)C(CC(=O)O)S3)o2)c([N+](=O)[O-])c1 (stereo not given)
> 100 µM (inactive)	O=S(=O)(c1ccc(NC(=S)N/N=C/c2ccc(O)c(O)c2O)cc1)N1CCOCC1
> 100 µM (inactive)	O=[N+]([O-])c1ccc(NC(=S)NCCC(c2ccccc2)c2ccccc2)cc1
> 100 µM (inactive)	COc1ccc(C=NN=C2SC(CC(=O)O)C(=O)N2c2ccc(O)cc2)cc1 (stereo not given)
42.8 µM	O=[N+]([O-])c1ccccc1NC(=S)NN=Cc1ccc(O)c(O)c1
> 100 µM (inactive)	COc1cc(C=NNC(=S)Nc2cccc(C(=O)O)c2)ccc1O
